US5214056A, “1,3,2-dioxathiolane oxide derivative” (Japan Tobacco Inc., priority 1989, dated 1993)

Experiments:
[1] = target: T1, Purified calpain (CANP) sampled from a rat brain (Rattus norvegicus, UniProt Q07009); assay: CANP inhibition activity in in vitro system; assay type: biochemical; conditions: N,N-dimethylcasein substrate, 30° C. for 20 minutes, pH 7.4, read-out: 50% inhibition concentration IC50
T1 construct: sampled from a rat brain; from tissue; host or cells: rat brain
T1 sequence (Q07009 1-700): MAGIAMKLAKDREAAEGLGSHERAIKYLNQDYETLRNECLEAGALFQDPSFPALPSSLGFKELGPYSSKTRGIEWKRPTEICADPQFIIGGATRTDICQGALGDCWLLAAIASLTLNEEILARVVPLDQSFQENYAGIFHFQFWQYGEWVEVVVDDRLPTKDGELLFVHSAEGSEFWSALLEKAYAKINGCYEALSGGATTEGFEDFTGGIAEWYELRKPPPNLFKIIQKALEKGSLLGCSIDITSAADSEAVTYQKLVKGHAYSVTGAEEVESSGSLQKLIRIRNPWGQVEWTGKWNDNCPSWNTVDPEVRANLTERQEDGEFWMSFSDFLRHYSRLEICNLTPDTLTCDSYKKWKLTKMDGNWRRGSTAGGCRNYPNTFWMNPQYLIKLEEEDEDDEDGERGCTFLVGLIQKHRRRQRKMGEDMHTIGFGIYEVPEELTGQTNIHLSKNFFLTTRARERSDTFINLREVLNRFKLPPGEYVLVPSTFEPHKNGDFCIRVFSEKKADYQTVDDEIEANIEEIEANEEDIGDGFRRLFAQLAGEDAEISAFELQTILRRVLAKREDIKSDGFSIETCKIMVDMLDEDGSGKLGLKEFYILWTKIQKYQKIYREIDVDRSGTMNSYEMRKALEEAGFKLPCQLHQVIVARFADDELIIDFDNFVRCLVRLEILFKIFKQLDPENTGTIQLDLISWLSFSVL
T1 sequence (Q64537 1-270 partner): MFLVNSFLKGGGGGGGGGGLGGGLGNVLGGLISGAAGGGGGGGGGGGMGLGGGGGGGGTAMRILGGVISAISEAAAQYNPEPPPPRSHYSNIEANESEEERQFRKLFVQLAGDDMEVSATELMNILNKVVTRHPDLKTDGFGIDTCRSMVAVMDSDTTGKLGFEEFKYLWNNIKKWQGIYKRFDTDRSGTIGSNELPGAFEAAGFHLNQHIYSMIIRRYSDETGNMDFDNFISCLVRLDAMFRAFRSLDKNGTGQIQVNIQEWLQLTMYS
Protocol: A solution mixture consisting of the following com-ponents was prepared.
A 167-mM Tris hydrochloric acid buffer solution (pH=7.4) (containing 15-mM mercaptoethanol); 40 μl
A solution obtained by dissolving the compound [I] of the present invention in the same Tris hydrochloric acid buffer solution as described above; 40 μl
Purified calpain [obtained by a method described in J. Biol. Chem., 239, 149 (1964)] sampled from a rat brain and dissolved in a 50-mM sodium acetic acid buffer solution (pH=6.0; containing 1-mM EDTA and 5-mM mercaptoethanol) 11 units/ml; 200 μl
An N,N-dimethylcasein solution (pH=7.0)
40 μl of a 167-mM Tris hydrochloric acid buffer solution (pH=7.4) containing 50-mM CaCl2 were added to the above solution mixture, and the resultant solution was incubated at 30° C. for 20 minutes. After the incubation, 320 μl of 10% (W/V) trichloroacetic acid were added to stop the reaction, and the resultant solution was left to stand in an ice bath for one hour. Thereafter, the solution was subjected to centrifugal separation (16,100×g, five minutes), and 600 μl of the supernatant were sampled to measure absorbance (a1) at 280 nm.
In another step, absorbance (a2) was obtained by performing an experiment and measurement following the same procedures as described above except that a 167-mM Tris hydrochloric acid buffer solution (pH=7.4; containing 15-mM mercaptoethanol) was used in place of the 167-mM Tris hydrochloric acid buffer solution containing the compound of the present invention. In addition, absorbance (a3) was obtained by performing an experiment and measurement following the same procedures as described above except that a 167-mM Tris hydrochloric acid buffer solution (pH=7.4; containing 1-mM EDTA) was used in place of the 167-mM tris buffer solution (pH=7.4) containing 50-mM CaCl2.
An inhibition ratio was calculated from the above absorbance values (a1), (a2), and (a3) in accordance with the following equation: [formula]
In addition, a concentration (IC50) required for 50% inhibition was calculated by using a semilogarithmical graph.

[2] = target: T2, cathepsin B (Bos taurus, UniProt P07688); assay: Cathepsin B inhibition activity in in-vitro system; assay type: biochemical; conditions: cathepsin B (Sigma), benzoyl-(phenylalanyl-alginyl)-4-methyl-coumarinamide substrate, pH 6.0, 30° C. for 20 minutes; read-out: 50% inhibition concentration IC50
T2 construct: purchased Sigma Co
Protocol: In this experiment, a 100-mM sodium phosphate buffer solution (pH=6.0; containing 1.33-mM EDTA Na2) was used as the buffer solutions for solution preparation.
A solution mixture consisting of the following components was prepared.
The above buffer solution; 850 μl
A 20-μM solution obtained by dissolving the compound of the present invention in the above buffer solution; 50 μl
A solution obtained by dissolving cathepsin B (available from Sigma Co.) in the above buffer solution to have a concentration of 0.5 mg/ml; 50 μl
50 μl of a 200-μM solution obtained by dissolving benzoyl-(phenylalanyl-alginyl)-4-methyl-coumarinamide in the above buffer solution were added to the above solution mixture, and the resultant solution was incubated at 30° C. for 20 minutes.
After the incubation, the reaction solution mixture was cooled in an ice bath to stop the reaction. After 20 minutes elapsed, the fluorescence intensity (b1) at an excitation wavelength of 370 nm and an emission wavelength of 440 nm was measured. At the same time, an experiment was performed using the above buffer solution in place of the solution of cathepsin B in the above system, and fluorescence intensity (b2) was measured following the same procedures as described above. In addition, an experiment was performed using the above buffer solution in place of the buffer solution of the compound of the present invention, and fluorescence intensity (b3) was measured following the same procedures as described above.
An inhibition ratio was calculated in accordance with the following equation: [formula] and a concentration (IC50) required for 50% inhibition was calculated by using a semilogarithmical graph.

Row | SMILES | IC50 [1] [nM] | IC50 [2] [nM]
1 | CCOC(=O)[C@H]1OS(=O)(=O)O[C@@H]1C(=O)N[C@@H](CC(C)C)C(=O)NCCC(C)C [Example 4, Ethyl (4S,5S)-5-[(S)-3-methyl-1-(3-methylbutylcarbamoyl)butylcarbamoyl]-1,3,2-dioxathiolane-4-carboxylate-2,2-dioxide] | 15000 | 25
2 | CCCCN(CCCC)C(=O)[C@H](CC(C)C)NC(=O)[C@H]1OS(=O)(=O)O[C@@H]1C(=O)OCC [Example 14] |  | 15
3 | CC(C)CC(NC(=O)C1OC1C(=O)O)C(=O)NCCCCNC(=N)N (stereo not shown) [Example E-64, E-64, reference compound] | 7000 | 35

Now those with a lower IC50 [2], led by results:

Row | IC50 [1] [nM] | IC50 [2] [nM] | SMILES
4 | 6000 | 9 | CC(C)CCNC(=O)[C@H](CC(C)C)NC(=O)[C@H]1OS(=O)(=O)O[C@@H]1C(=O)OCc1ccccc1 [Example 11, Benzyl (4S,5S)-5-[(S)-3-methyl-1-(3-methylbutylcarbamoyl)butylcarbamoyl]-1,3,2-dioxathiolane-4-carboxylate-2,2-dioxide]
5 |  | 3 | CCOC(=O)[C@H]1OS(=O)(=O)O[C@@H]1C(=O)N[C@@H](CC(C)C)C(=O)NCc1ccccc1 [Example 16, Ethyl (4S,5S)-5-[(S)-1-benzylcarbamoyl-3-methylbutylcarbamoyl]-1,3,2-dioxathiolane-4-carboxylate-2,2-dioxide]
6 | 300 | 0.7 | CC(C)CCNC(=O)[C@H](CC(C)C)NC(=O)[C@H]1OS(=O)(=O)O[C@@H]1C(=O)O [Example 12, (4S,5S)-5[(S)-3-methyl-1-(3-methylbutylcarbamoyl)butylcarbamoyl]-1,3,2-dioxathiolane-4-carboxy-2,2-dioxide]
